{"source": "ChEMBL document CHEMBL1124045", "about": "“Synthesis and antiviral evaluation of carbocyclic analogues of 2'-azido- and 2'-amino-2'-deoxycytidine” (1988)", "key": {"Human alphaherpesvirus 1 [1]": {"test_system": "Human alphaherpesvirus 1", "experiment": "Antiviral activity in vitro against Herpes simplex virus type 1 (HSV-1); NA is not active uM", "type": "functional, organism-based"}, "Human alphaherpesvirus 1 [2]": {"test_system": "Human alphaherpesvirus 1", "experiment": "Antiviral activity in vitro against Herpes simplex virus type 1 (HSV-1)", "type": "functional", "conditions": "read-out: ED50 (the source's name)"}}, "note": "pEC50: −log10 of the molar value. Activity calls are given as the source filed them. No cut-off for these calls is given here."}
{"compound": "[N-]=[N+]=N[C@@H]1C(n2ccc(N)nc2=O)CC(CO)[C@@H]1O", "note": "(some centres not stated)", "values": [{"measurement": "ED50", "setting": "Human alphaherpesvirus 1 [1]", "value": "inactive"}]}
{"compound": "Nc1ccn(C2CC(CO)[C@H](O)[C@@H]2N)c(=O)n1", "note": "(some centres not stated)", "values": [{"measurement": "pEC50", "setting": "Human alphaherpesvirus 1 [2]", "value": 4.30}]}
